Measured values published in ChEMBL document CHEMBL3991601, “The target landscape of clinical kinase drugs” (Science, 2017).
Activity calls are given as the source filed them. Cut-off read from the data, not from the text of the source, for most assays here: actives have a measured Kd and inactives only a lower limit.

Assays:
[1] = target: Atypical kinase COQ8A, mitochondrial (Homo sapiens, UniProt Q8NI60)
[2] = target: Adenylate kinase 2, mitochondrial (Homo sapiens, UniProt P54819)
[3] = target: Calcium/calmodulin-dependent protein kinase type II subunit gamma (Homo sapiens, UniProt Q13555)
Calcium/calmodulin-dependent protein kinase type II subunit gamma, sequence (Q13555 whole entry): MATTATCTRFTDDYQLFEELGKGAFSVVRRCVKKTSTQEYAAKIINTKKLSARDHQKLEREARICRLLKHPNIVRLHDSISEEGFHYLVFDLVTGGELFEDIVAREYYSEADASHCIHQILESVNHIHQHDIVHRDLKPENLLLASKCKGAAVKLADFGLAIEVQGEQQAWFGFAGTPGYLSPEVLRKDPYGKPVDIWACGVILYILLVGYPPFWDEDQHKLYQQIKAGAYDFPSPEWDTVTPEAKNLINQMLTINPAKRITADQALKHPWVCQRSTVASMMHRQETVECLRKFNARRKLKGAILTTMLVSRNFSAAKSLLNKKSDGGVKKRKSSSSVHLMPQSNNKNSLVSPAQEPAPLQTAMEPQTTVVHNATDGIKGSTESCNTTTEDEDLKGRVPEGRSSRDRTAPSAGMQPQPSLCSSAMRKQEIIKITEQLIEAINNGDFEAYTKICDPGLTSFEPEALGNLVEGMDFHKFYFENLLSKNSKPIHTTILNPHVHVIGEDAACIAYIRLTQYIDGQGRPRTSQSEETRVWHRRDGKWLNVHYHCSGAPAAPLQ

[4] = target: Cyclin-dependent kinase 5 (Homo sapiens, UniProt Q00535)
[5] = target: Epithelial discoidin domain-containing receptor 1 (Homo sapiens, UniProt Q08345)
Epithelial discoidin domain-containing receptor 1, sequence (Q08345 whole entry, the tested form may be a part): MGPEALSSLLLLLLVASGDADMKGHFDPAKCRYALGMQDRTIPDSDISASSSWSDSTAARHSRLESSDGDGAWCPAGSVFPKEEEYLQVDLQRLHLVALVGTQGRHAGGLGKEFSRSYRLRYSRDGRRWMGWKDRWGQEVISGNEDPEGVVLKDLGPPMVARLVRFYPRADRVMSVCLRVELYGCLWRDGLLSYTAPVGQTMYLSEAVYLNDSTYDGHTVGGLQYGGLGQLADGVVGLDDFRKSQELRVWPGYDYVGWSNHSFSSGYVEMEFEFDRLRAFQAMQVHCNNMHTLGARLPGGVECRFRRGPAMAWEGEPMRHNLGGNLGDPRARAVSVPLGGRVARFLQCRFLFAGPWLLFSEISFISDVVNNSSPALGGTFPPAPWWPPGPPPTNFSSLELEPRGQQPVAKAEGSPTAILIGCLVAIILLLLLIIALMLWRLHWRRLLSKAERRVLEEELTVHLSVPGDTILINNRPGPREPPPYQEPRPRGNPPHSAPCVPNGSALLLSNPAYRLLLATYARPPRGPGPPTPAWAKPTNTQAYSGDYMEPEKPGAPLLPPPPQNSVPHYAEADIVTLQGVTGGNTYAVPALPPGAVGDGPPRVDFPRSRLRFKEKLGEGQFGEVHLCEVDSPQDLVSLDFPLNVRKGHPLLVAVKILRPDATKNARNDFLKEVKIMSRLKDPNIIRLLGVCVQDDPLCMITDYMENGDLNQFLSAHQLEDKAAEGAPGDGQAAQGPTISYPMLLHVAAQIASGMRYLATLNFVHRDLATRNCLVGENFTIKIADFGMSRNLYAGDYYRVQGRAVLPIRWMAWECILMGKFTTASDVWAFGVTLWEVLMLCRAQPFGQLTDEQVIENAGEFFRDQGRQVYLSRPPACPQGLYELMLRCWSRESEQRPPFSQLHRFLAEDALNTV

[6] = target: T1, Delta(24)-sterol reductase (Homo sapiens, UniProt Q15392)
T1 sequence (Q15392 whole entry): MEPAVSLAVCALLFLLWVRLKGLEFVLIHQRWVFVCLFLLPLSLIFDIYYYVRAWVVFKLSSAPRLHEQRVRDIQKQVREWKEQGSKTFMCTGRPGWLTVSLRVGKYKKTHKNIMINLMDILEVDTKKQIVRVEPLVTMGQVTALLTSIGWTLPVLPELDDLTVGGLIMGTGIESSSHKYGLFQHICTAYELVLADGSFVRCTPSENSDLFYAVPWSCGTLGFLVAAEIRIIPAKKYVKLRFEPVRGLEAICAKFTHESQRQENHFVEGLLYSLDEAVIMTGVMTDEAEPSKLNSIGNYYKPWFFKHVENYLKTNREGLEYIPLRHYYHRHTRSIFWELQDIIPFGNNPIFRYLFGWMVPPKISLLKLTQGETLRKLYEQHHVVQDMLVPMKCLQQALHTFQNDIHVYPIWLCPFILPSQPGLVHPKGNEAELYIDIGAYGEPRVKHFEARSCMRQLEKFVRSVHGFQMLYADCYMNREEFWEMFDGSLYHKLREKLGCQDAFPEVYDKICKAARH

[7] = target: Tyrosine-protein kinase FRK (Homo sapiens, UniProt P42685)
[8] = target: T2, Mitogen-activated protein kinase kinase kinase kinase 3 (Homo sapiens, UniProt Q8IVH8)
T2 sequence (Q8IVH8 whole entry): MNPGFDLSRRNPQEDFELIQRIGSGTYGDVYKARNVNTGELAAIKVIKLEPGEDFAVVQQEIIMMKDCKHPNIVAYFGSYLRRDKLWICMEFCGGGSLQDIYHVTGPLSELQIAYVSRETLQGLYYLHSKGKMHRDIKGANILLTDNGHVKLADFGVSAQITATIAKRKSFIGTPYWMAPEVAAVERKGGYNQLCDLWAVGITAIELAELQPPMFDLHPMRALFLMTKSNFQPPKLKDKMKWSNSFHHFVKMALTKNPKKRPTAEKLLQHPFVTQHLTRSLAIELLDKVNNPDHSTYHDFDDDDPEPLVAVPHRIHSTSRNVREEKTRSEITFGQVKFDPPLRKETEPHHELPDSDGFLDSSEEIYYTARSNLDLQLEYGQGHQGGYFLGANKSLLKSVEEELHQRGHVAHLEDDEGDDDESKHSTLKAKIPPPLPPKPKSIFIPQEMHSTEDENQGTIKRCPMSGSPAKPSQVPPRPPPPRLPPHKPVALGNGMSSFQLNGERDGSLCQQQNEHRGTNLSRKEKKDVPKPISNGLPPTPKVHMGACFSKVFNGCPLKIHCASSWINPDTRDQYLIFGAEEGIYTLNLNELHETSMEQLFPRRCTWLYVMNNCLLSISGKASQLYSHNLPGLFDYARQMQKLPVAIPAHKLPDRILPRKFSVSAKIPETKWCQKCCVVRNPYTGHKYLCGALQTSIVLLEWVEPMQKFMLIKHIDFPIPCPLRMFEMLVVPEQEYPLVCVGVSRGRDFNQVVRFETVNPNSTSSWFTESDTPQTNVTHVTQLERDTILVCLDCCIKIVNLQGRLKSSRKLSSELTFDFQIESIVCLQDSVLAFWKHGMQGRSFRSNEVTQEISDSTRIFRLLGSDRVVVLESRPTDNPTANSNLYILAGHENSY

[9] = target: Mitogen-activated protein kinase kinase kinase kinase 5 (Homo sapiens, UniProt Q9Y4K4)
Mitogen-activated protein kinase kinase kinase kinase 5, sequence (Q9Y4K4 whole entry): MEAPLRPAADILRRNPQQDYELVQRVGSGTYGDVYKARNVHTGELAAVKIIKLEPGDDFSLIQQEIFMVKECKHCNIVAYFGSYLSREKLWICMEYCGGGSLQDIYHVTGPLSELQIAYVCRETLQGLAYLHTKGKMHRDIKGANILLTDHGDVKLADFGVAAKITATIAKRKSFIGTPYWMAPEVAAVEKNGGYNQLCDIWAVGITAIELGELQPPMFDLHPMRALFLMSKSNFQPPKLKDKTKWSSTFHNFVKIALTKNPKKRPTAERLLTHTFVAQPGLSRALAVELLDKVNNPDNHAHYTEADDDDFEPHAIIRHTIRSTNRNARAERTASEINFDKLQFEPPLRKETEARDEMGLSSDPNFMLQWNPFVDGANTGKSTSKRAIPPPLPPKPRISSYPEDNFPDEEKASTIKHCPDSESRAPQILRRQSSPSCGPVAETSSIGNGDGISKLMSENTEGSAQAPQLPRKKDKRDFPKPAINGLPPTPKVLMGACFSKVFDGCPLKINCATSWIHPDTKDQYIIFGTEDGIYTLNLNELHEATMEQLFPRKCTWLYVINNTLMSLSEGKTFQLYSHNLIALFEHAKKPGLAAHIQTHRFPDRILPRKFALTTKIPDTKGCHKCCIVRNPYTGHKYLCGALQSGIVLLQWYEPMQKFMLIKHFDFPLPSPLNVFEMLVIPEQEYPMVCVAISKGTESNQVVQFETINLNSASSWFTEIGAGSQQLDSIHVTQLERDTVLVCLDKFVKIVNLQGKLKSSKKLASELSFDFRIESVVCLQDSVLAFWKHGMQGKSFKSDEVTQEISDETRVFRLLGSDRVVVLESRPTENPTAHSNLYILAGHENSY

[10] = target: Mitogen-activated protein kinase 10 (Homo sapiens, UniProt P53779)
Mitogen-activated protein kinase 10, sequence (P53779 whole entry): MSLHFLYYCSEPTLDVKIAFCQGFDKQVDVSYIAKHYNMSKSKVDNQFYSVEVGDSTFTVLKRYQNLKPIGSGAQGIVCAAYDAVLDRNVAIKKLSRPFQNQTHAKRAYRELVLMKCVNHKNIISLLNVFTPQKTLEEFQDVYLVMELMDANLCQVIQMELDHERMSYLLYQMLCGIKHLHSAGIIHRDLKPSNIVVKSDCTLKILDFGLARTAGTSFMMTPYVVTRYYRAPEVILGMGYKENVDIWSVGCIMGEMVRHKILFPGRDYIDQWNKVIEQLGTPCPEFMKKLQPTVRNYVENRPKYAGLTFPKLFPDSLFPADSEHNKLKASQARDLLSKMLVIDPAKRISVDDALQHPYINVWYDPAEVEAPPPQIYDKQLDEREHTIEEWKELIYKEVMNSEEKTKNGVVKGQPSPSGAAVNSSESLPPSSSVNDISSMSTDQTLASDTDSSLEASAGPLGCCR

[11] = target: MAP kinase-activated protein kinase 2 (Homo sapiens, UniProt P49137)
[12] = target: T3, Bifunctional phosphoribosylaminoimidazole carboxylase/phosphoribosylaminoimidazole succinocarboxamide synthetase (Homo sapiens, UniProt P22234)
T3 sequence (P22234 whole entry): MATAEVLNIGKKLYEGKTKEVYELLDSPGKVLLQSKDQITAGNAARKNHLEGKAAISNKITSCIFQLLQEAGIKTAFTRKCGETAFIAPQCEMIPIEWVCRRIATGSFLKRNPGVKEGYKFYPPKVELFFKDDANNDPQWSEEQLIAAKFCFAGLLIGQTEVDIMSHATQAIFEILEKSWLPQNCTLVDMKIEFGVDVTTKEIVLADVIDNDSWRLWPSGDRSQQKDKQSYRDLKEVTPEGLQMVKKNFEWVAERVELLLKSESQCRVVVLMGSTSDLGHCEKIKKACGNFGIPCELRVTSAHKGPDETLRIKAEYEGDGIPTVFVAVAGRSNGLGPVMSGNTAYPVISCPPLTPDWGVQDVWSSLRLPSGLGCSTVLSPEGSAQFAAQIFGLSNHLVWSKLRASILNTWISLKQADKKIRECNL

[13] = target: Serine/threonine-protein kinase pim-1 (Homo sapiens, UniProt P11309)
Serine/threonine-protein kinase pim-1, sequence (P11309 whole entry): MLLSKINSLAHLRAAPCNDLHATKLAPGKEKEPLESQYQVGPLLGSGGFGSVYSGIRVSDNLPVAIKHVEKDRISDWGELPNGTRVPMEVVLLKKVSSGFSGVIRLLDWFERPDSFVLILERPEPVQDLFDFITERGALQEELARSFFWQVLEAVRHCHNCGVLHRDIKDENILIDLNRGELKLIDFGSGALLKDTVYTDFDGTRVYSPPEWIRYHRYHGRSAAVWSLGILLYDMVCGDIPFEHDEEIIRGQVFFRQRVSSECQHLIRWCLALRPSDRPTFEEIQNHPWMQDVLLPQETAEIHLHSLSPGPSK

[14] = target: Structural maintenance of chromosomes protein 2 (Homo sapiens, UniProt O95347)
Structural maintenance of chromosomes protein 2, sequence (O95347 whole entry): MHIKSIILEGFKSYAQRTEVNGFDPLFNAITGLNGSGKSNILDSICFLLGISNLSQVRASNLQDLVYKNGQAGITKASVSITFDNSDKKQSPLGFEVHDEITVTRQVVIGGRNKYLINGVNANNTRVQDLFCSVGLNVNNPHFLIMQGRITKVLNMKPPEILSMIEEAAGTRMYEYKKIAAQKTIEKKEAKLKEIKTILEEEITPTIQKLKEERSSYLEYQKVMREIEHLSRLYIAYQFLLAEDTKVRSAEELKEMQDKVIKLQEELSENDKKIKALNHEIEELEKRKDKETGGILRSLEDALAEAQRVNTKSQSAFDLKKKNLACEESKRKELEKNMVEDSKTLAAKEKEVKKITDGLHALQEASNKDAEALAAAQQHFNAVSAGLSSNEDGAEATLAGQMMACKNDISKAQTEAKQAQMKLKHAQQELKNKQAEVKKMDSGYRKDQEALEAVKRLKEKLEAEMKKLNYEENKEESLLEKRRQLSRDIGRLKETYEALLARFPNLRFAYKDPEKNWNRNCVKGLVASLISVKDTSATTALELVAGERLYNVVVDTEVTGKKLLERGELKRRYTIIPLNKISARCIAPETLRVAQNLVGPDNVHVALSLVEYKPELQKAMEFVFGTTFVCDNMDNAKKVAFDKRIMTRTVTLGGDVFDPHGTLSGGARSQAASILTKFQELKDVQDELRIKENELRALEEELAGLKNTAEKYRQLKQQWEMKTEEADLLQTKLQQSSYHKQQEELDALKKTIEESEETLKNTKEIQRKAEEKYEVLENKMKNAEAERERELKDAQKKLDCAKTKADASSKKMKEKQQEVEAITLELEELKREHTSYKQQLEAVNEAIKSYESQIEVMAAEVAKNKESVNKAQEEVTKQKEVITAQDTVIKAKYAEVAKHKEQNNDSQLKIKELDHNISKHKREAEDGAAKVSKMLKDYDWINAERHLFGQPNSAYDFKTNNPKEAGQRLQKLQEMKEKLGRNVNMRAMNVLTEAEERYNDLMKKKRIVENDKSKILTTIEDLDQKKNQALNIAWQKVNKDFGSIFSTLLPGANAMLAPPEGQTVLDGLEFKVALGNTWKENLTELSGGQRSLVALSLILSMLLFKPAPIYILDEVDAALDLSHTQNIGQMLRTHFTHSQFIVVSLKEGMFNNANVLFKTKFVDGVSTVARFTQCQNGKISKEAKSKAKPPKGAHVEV

[15] = target: T4, Uncharacterized protein FLJ45252 (Homo sapiens, UniProt Q6ZSR9); conditions: read-out: Kd apparent; k-562, colo 205, sk-n-be(2) and mv-4-11
T4 sequence (Q6ZSR9 whole entry): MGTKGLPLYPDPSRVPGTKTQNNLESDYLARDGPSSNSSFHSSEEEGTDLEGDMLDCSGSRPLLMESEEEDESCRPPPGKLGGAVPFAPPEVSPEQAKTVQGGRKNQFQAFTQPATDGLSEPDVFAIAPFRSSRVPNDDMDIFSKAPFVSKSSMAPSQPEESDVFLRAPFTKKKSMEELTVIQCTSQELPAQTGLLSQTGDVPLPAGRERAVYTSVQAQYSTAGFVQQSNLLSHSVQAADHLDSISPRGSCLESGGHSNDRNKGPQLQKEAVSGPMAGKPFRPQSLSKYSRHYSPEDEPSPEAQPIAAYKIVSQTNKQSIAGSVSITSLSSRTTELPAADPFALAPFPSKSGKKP
Note: in the data inactive means no Kd found up to 30 µM.

Atypical kinase COQ8A, mitochondrial, sequence (Q8NI60 whole entry): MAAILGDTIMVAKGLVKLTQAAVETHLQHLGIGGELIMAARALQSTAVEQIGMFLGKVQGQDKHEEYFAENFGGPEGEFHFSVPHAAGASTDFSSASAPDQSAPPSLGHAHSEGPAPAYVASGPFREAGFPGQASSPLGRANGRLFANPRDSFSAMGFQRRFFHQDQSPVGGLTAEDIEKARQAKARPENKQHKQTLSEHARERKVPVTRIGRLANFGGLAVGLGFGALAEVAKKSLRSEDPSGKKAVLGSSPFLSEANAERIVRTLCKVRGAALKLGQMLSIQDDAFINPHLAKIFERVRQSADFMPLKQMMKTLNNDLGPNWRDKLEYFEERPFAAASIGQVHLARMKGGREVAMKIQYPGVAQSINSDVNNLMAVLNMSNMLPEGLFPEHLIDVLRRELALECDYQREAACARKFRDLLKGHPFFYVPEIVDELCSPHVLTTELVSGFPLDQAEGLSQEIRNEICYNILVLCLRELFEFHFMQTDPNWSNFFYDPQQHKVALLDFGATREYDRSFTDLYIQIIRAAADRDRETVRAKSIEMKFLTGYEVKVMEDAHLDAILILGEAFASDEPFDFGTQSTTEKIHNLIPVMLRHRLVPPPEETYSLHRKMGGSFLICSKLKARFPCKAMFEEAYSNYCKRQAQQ

SMILES	Kd [1]	Kd [2]	Kd [3]	Kd [4]	Kd [5]	Kd [6]	Kd [7]	Kd [8]	Kd [9]	Kd [10]	Kd [11]	Kd [12]	Kd [13]	Kd [14]	Kd [15]
CCN1CCN(Cc2ccc(-c3cc4c(N[C@H](C)c5ccccc5)ncnc4[nH]3)cc2)CC1 [AEE-788]	> 30 µM (inactive)	> 30 µM (inactive)	> 30 µM (inactive)	> 30 µM (inactive)	5.22 µM (active)	> 30 µM (inactive)	> 30 µM (inactive)	> 30 µM (inactive)	50.2 µM (active)	> 30 µM (inactive)	> 30 µM (inactive)	> 30 µM (inactive)	> 30 µM (inactive)	> 30 µM (inactive)	> 30 µM (inactive)
CC(=O)Nc1cccc(-n2c(=O)n(C3CC3)c(=O)c3c(Nc4ccc(I)cc4F)n(C)c(=O)c(C)c32)c1 [TRAMETINIB]	> 30 µM (inactive)	> 30 µM (inactive)	> 30 µM (inactive)	> 30 µM (inactive)	> 30 µM (inactive)	> 30 µM (inactive)	> 30 µM (inactive)	> 30 µM (inactive)	> 30 µM (inactive)	> 30 µM (inactive)	> 30 µM (inactive)	> 30 µM (inactive)	> 30 µM (inactive)	> 30 µM (inactive)	> 30 µM (inactive)
O=C(O)[C@]1(Cc2cccc(Nc3nccs3)n2)CC[C@@H](Oc2cccc(Cl)c2F)CC1 [MK-5108]	> 30 µM (inactive)	> 30 µM (inactive)	> 30 µM (inactive)	> 30 µM (inactive)	1.22 µM (active)	> 30 µM (inactive)	0.724 µM (active)	> 30 µM (inactive)	> 30 µM (inactive)	3.08 µM (active)	> 30 µM (inactive)	> 30 µM (inactive)	> 30 µM (inactive)	> 30 µM (inactive)	> 30 µM (inactive)
C1=C/COCc2cc(ccc2OCCN2CCCC2)Nc2nccc(n2)-c2cccc(c2)COC/1 [PACRITINIB]	> 30 µM (inactive)	> 30 µM (inactive)	> 30 µM (inactive)	> 30 µM (inactive)	71.5 µM (active)	> 30 µM (inactive)	> 30 µM (inactive)	> 30 µM (inactive)	> 30 µM (inactive)	> 30 µM (inactive)	> 30 µM (inactive)	> 30 µM (inactive)	> 30 µM (inactive)	> 30 µM (inactive)	0.052 µM (active)
Cc1ccc(NC(=O)c2ccc(CN3CC[C@H](N(C)C)C3)c(C(F)(F)F)c2)cc1Nc1nccc(-c2cncnc2)n1 [BAFETINIB]	> 30 µM (inactive)	> 30 µM (inactive)	> 30 µM (inactive)	> 30 µM (inactive)	0.014 µM (active)	> 30 µM (inactive)	0.428 µM (active)	> 30 µM (inactive)	> 30 µM (inactive)	> 30 µM (inactive)	0.304 µM (active)	> 30 µM (inactive)	> 30 µM (inactive)	> 30 µM (inactive)	> 30 µM (inactive)
O=C(Nc1ccc(-c2ccnc(Nc3ccc(N4CCOCC4)cc3)n2)cc1)C1CCCN1 (stereo not given) [XL-019]	> 30 µM (inactive)	> 30 µM (inactive)	> 30 µM (inactive)	> 30 µM (inactive)	> 30 µM (inactive)	> 30 µM (inactive)	> 30 µM (inactive)	> 30 µM (inactive)	> 30 µM (inactive)	> 30 µM (inactive)	0.354 µM (active)	> 30 µM (inactive)	> 30 µM (inactive)	> 30 µM (inactive)	0.007 µM (active)
O=C(c1ccc(F)c(F)c1Nc1ccc(I)cc1F)N1CC(O)([C@@H]2CCCCN2)C1 [COBIMETINIB]	> 30 µM (inactive)	> 30 µM (inactive)	> 30 µM (inactive)	> 30 µM (inactive)	> 30 µM (inactive)	> 30 µM (inactive)	> 30 µM (inactive)	> 30 µM (inactive)	> 30 µM (inactive)	> 30 µM (inactive)	> 30 µM (inactive)	> 30 µM (inactive)	> 30 µM (inactive)	> 30 µM (inactive)	> 30 µM (inactive)
Cc1cc(-c2cc(O)ccc2Cl)cc2nnc(Nc3ccc(OCCN4CCCC4)cc3)nc12	> 30 µM (inactive)	> 30 µM (inactive)	> 30 µM (inactive)	> 30 µM (inactive)	0.003 µM (active)	> 30 µM (inactive)	0.001 µM (active)	> 30 µM (inactive)	> 30 µM (inactive)	> 30 µM (inactive)	> 30 µM (inactive)	> 30 µM (inactive)	> 30 µM (inactive)	> 30 µM (inactive)	> 30 µM (inactive)
Cc1cc([C@@H](C)Nc2ccccc2C(=O)O)c2nc(N3CCOCC3)cc(=O)n2c1 [AZD-6482]	> 30 µM (inactive)	> 30 µM (inactive)	> 30 µM (inactive)	> 30 µM (inactive)	> 30 µM (inactive)	> 30 µM (inactive)	> 30 µM (inactive)	> 30 µM (inactive)	> 30 µM (inactive)	> 30 µM (inactive)	> 30 µM (inactive)	> 30 µM (inactive)	> 30 µM (inactive)	> 30 µM (inactive)	> 30 µM (inactive)
